# Data published in patent publication US20230115611A1, “TREATMENT OF PAIN AND VASOCONSTRICTION” (Aisa Pharma, Inc., priority 2020, published 2023).
# Key:
# [1] = target: T1, human Nav 1.7 (Homo sapiens, UniProt Q15858); test: Nav 1.7 sodium channel inhibition, automated patch clamp (QPATCH II), two pulse voltage protocol; type: cell-based; conditions: for Mean % inhibition-closed state: closed state (P1) of Nav 1.7; for Mean % inhibition-closed state / Mean % inhibition-inactivated state: CHO cells, compound at/around Cmax concentration as in Table 4; for Mean % inhibition-inactivated state: inactivated state (P2) of Nav 1.7; for ranking of the compounds in terms of efficacy: Nav 1.7 inhibition at Cmax
# T1 construct: expressed in transfected cells
# Protocol: Chinese Hamster Ovary (CHO) cells stably expressing human Nav 1.7 were cultured according to the manufacturer's standard operating procedure (SOP) and enzymatically lifted into solution following Sophion's standard SOP.
# Voltage protocol 1 (VP1): A voltage protocol designed to generate a current voltage relationship and to estimate the half inactivation potential (V1/2) was used. The first voltage protocol was used as quality control and the latter was used later in the experiment (see below).
# Voltage protocol 2 (VP2): Two pulse voltage protocol. FIG. 2 depicts a two pulse voltage protocol. The line marked with an asterisk indicates the voltage that was applied to the cell. In the beginning, all channels were in the closed state (V=−120 mV). A depolarization step to V=10 mV (P1) activated all channels and produced the largest possible current. Next, cells were kept at the V1/2 value for 1 s. […] A second stimulation to V=−10 mV activated all channels that were in the closed state (50%). Compound effects were assessed at both P1 and P2. State dependent compounds will show a different degree of inhibition at the two different pulses. This protocol was repeated every 10 s to monitor compound effects on the channel.
# [2] = oral dose 10 mg; reference value; cited from earlier work
# T1 sequence (Q15858 whole entry): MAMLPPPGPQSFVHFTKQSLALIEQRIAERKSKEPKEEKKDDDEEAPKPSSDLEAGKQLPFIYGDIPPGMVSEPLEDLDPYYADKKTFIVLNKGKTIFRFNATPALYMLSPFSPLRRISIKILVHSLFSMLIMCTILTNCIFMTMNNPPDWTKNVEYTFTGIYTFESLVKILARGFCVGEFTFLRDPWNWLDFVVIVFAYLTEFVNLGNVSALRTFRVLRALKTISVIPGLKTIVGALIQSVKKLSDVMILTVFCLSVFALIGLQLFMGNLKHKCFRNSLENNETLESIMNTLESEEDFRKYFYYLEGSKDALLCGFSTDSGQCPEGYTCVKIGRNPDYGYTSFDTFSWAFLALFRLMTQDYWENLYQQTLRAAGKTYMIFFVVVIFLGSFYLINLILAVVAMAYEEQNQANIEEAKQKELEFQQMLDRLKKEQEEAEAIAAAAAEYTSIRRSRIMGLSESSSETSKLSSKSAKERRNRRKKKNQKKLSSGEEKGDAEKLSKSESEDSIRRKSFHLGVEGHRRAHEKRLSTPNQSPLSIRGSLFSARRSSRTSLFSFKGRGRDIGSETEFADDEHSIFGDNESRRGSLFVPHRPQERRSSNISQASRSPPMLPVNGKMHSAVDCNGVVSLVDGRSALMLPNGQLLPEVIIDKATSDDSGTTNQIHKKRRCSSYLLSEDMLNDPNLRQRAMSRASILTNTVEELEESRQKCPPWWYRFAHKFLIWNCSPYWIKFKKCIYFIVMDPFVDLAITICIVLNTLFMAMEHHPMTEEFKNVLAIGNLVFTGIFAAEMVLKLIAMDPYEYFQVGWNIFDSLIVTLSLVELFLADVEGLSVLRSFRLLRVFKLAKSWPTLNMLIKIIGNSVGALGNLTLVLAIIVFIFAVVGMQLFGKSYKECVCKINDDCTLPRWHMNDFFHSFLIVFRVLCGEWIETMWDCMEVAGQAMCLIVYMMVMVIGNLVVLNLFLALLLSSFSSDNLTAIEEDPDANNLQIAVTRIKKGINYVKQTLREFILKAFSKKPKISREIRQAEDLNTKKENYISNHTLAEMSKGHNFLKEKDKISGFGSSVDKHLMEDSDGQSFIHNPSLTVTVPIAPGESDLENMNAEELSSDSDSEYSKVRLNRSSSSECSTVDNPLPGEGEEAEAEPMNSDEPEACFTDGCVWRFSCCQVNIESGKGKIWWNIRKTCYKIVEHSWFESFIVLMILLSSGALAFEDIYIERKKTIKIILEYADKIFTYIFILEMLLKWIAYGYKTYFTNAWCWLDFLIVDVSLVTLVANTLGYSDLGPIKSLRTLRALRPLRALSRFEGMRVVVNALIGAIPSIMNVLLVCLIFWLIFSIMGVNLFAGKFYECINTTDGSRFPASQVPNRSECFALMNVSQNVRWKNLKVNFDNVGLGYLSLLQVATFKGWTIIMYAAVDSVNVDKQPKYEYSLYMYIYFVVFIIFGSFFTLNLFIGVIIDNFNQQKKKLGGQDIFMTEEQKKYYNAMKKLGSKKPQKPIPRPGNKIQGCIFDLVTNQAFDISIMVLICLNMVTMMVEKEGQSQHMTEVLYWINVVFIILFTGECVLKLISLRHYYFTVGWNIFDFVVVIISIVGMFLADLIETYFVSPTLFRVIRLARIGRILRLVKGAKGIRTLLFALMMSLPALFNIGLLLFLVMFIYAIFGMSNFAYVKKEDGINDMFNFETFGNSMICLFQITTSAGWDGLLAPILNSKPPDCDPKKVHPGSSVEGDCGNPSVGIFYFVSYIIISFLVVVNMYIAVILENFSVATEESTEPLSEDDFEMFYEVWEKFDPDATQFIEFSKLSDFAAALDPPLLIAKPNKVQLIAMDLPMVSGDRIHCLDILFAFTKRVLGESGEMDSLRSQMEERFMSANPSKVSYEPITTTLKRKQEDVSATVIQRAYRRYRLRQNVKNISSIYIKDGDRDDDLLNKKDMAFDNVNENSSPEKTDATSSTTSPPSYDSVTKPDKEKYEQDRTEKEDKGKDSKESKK
SMILES,Mean % inhibition-closed state [1] [%],Mean % inhibition-inactivated state [1] [%],Cmax [2] [ng/mL],activity at the sodium channel subunit Nav 1.7 [1],ranking of the compounds in terms of efficacy [1],activity at Nav 1.7 compared with bupivacaine ([1]; cilnidipine at 20 mg dose),activity at Nav 1.7 compared with gabapentin ([1]; cilnidipine at 20 mg dose),activity at Nav 1.7 relative to amlodipine ([1]; comparable clinical doses (amlodipine 5 mg to cilnidipine 10 mg and amlodipine 10 mg to cilnidipine 20 mg)),higher relative inhibition of Nav 1.7 than amlodipine ([1]; plasma concentrations achieved with 10 mg cilnidipine versus clinically comparable 5 mg amlodipine) [%]
C[S+](C)[O-] [DMSO],−2.7,38.7,,,,,,,
CCOC(=O)C1=C(COCCN)NC(C)=C(C(=O)OC)C1c1ccccc1Cl (centres unmarked) [amlodipine],−7.4,7.8,,,,,,,
CCCCN1CCCCC1C(=O)Nc1c(C)cccc1C (centres unmarked) [bupivacaine],2.5,20,,,,,,,
COCCOC(=O)C1=C(C)NC(C)=C(C(=O)OC/C=C/c2ccccc2)C1c1cccc([N+](=O)[O-])c1 (centres unmarked) [cilnidipine],−6.7,18.5,5.9 ± 1.2,clinically meaningful activity,gabapentin<amlodipine<cilnidipine nifedipine,"appears to be greater than a sodium channel blocker and local anesthetic, bupivacaine",greater than gabapentin,about 5 ×,9.5
NCC1(CC(=O)O)CCCCC1 [gabapentin],−5.2,6.3,,,gabapentin<amlodipine<cilnidipine nifedipine,,,,
CCN(CC)CC(=O)Nc1c(C)cccc1C [lidocaine],40.9,89.0,,,,,,,
